Test results as given in the supplement of paper PMC10307832.

What was measured:
Experiment in all cases: relative viability (nuclei count vs DMSO), 5 days (fraction); higher = more cells survive
Bleomycin + OSI-027 = compound: CC1=C(N=C(N=C1N)[C@H](CC(=O)N)NC[C@@H](C(=O)N)N)C(=O)N[C@@H]([C@H](C2=CN=CN2)OC3C(C(C(C(O3)CO)O)O)OC4C(C(C(C(O4)CO)O)OC(=O)N)O)C(=O)N[C@H](C)[C@H]([C@H](C)C(=O)N[C@@H]([C@@H](C)O)C(=O)NCCC5=NC(=CS5)C6=NC(=CS6)C(=O)NCCC[S+](C)C)O [Bleomycin] + COc1cccc2cc(-c3nc([C@H]4CC[C@H](C(=O)O)CC4)n4ncnc(N)c34)[nH]c12 [OSI-027] (partner 0.5 µM); conditions: main component drawn
Method in brief: (§1)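 Lung cancer cell lines in 1536-well plates got either a single drug or a fixed anchor-drug dose together with five library-drug doses (not always all listed) in √10 steps, by pin tool, on the day after seeding. Nuclei were counted after 5 days, and relative viability is the treated-to-vehicle ratio of nuclei counts. Values are medians of duplicate plates.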

Etoposide + Lapatinib = compound: COc1cc([C@@H]2c3cc4c(cc3[C@@H](O[C@@H]3O[C@@H]5CO[C@@H](C)O[C@H]5[C@H](O)[C@H]3O)[C@H]3COC(=O)[C@H]23)OCO4)cc(OC)c1O [Etoposide] + CS(=O)(=O)CCNCc1ccc(-c2ccc3ncnc(Nc4ccc(OCc5cccc(F)c5)c(Cl)c4)c3c2)o1 [Lapatinib] (partner 2 µM)
Method in brief: as §1

Etoposide + Dasatinib = compound: COc1cc([C@@H]2c3cc4c(cc3[C@@H](O[C@@H]3O[C@@H]5CO[C@@H](C)O[C@H]5[C@H](O)[C@H]3O)[C@H]3COC(=O)[C@H]23)OCO4)cc(OC)c1O [Etoposide] + Cc1nc(Nc2ncc(C(=O)Nc3c(C)cccc3Cl)s2)cc(N2CCN(CCO)CC2)n1 [Dasatinib] (partner 0.075 µM)
Method in brief: as §1

Bleomycin + Pictilisib = compound: CC1=C(N=C(N=C1N)[C@H](CC(=O)N)NC[C@@H](C(=O)N)N)C(=O)N[C@@H]([C@H](C2=CN=CN2)OC3C(C(C(C(O3)CO)O)O)OC4C(C(C(C(O4)CO)O)OC(=O)N)O)C(=O)N[C@H](C)[C@H]([C@H](C)C(=O)N[C@@H]([C@@H](C)O)C(=O)NCCC5=NC(=CS5)C6=NC(=CS6)C(=O)NCCC[S+](C)C)O [Bleomycin] + CS(=O)(=O)N1CCN(Cc2cc3nc(-c4cccc5[nH]ncc45)nc(N4CCOCC4)c3s2)CC1 [Pictilisib] (partner 1 µM); conditions: main component drawn
Method in brief: as §1

Cell Line	relative viability (Bleomycin + OSI-027; first compound 0.01 µM)	relative viability (Bleomycin + OSI-027; first compound 0.03162 µM)	relative viability (Bleomycin + OSI-027; first compound 0.1 µM)	relative viability (Bleomycin + OSI-027; first compound 0.3162 µM)	relative viability (Bleomycin + OSI-027; first compound 1 µM)	relative viability (Etoposide + Lapatinib; first compound 0.01 µM)	relative viability (Etoposide + Lapatinib; first compound 0.03162 µM)	relative viability (Etoposide + Lapatinib; first compound 0.1 µM)	relative viability (Etoposide + Lapatinib; first compound 0.3162 µM)	relative viability (Etoposide + Lapatinib; first compound 1 µM)	relative viability (Etoposide + Dasatinib; first compound 0.01 µM)	relative viability (Etoposide + Dasatinib; first compound 0.03162 µM)	relative viability (Etoposide + Dasatinib; first compound 0.1 µM)	relative viability (Etoposide + Dasatinib; first compound 0.3162 µM)	relative viability (Etoposide + Dasatinib; first compound 1 µM)	relative viability (Bleomycin + Pictilisib; first compound 0.01 µM)	relative viability (Bleomycin + Pictilisib; first compound 0.03162 µM)	relative viability (Bleomycin + Pictilisib; first compound 0.1 µM)	relative viability (Bleomycin + Pictilisib; first compound 0.3162 µM)	relative viability (Bleomycin + Pictilisib; first compound 1 µM)
ABC-1	0.394	0.428	0.388	0.18	0.212	1.05	1.34	1.09	1.1	0.667	0.535	0.597	0.336	0.248	0.207	0.68	0.689	0.719	0.333	0.286
NCI-H2170	0.598	0.764	0.767	0.52	0.395	0.294	0.264	–	0.292	0.23	0.678	0.658	0.353	0.619	0.401	0.376	0.304	0.297	0.256	0.262
NCI-H2405	0.617	0.596	0.567	0.477	0.346	1.16	1.24	0.746	0.77	0.275	0.219	0.23	0.239	0.197	0.199	0.45	0.417	0.42	0.254	0.202
NCI-H1993	0.541	0.483	0.513	0.535	0.422	0.95	0.797	0.75	0.659	0.657	0.619	0.712	0.478	0.546	0.376	0.647	0.807	0.794	0.681	0.688
PC-14	0.439	0.435	0.114	0.0634	0.0557	0.307	0.349	0.225	0.366	0.229	0.266	0.227	0.276	0.217	0.151	0.369	0.259	0.159	0.0359	0.0457
HARA	0.401	0.505	0.454	0.3	0.176	0.591	0.811	0.675	0.56	0.134	0.263	0.298	0.259	0.23	0.181	0.333	0.557	0.428	0.27	0.184
NCI-H2126	0.644	0.774	0.738	0.522	0.585	0.784	0.756	0.52	0.595	0.383	0.668	0.568	0.434	0.485	0.244	0.498	0.471	0.501	0.391	0.365
NCI-H1437	0.76	0.848	0.748	0.522	0.368	0.754	0.837	0.577	0.398	0.186	0.585	0.443	0.283	0.29	0.165	0.47	0.407	0.24	0.146	0.224
NCI-H1792	0.728	0.863	0.649	0.459	0.338	0.939	0.832	0.883	0.798	0.595	0.699	0.695	0.658	0.72	0.549	0.301	0.231	0.217	0.102	0.122
NCI-H661	0.632	0.683	0.4	0.23	0.235	0.44	0.416	0.314	0.283	0.235	0.787	1.02	0.671	0.586	0.306	0.523	0.387	0.263	0.25	0.245
COR-L23	0.566	0.696	0.415	0.139	0.122	0.854	1.06	0.92	0.588	0.14	0.398	0.461	0.428	0.26	0.161	0.705	0.7	0.433	0.129	0.0958
COR-L 105	0.591	0.567	0.639	0.339	0.377	0.271	0.393	0.26	0.343	0.356	0.3	0.345	0.273	0.328	0.293	0.412	0.43	0.406	0.278	0.276
LK-2	0.192	0.202	0.177	0.167	0.162	0.949	1.23	0.566	0.555	0.217	0.248	0.297	0.275	0.301	0.181	0.517	0.489	0.437	0.287	0.278
201T	0.649	0.77	0.634	0.407	0.207	1.07	1.05	0.916	0.921	0.729	0.639	0.655	0.524	0.548	0.477	0.686	0.59	0.622	0.634	0.512
